{"source": "ChEMBL document CHEMBL1201862", "about": "“PubChem BioAssay data set” (2004)", "key": {"[1]": {"experiment": "HEK-293T viability loss after treatment – luminescence, T-cell screen hits, cytotoxicity control for TCR NF-kB inhibitor project, dose response (AID 489026);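 also: cells exposed to compound about 14 hours before the viability readout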", "assay_type": "functional, cell-based"}, "[2]": {"molecular_target": "T1, Heat shock factor protein 1 (Mus musculus, UniProt P38532)", "T1 sequence (P38532 whole entry)": "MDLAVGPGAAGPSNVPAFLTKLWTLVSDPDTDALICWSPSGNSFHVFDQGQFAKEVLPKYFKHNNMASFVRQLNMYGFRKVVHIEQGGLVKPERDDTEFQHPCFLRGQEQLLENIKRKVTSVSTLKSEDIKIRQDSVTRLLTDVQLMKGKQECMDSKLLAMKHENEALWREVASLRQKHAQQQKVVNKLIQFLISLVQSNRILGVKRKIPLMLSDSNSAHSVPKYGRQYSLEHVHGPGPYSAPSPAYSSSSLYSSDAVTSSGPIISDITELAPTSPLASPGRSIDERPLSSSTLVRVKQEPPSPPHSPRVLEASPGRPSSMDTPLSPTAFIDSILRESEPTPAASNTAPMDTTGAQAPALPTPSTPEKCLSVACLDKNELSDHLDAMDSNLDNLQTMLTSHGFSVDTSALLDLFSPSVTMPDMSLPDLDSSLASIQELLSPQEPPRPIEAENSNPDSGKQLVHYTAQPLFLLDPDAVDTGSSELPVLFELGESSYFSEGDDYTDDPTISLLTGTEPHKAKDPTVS", "experiment": "enhancement of HSF1-driven luciferase signal – cell-based, NIH3T3, luminescence, dose retest, confirmation (AID 435004);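 also: stress induced by proteasome inhibitor MG132 added 30 min after compound; actives raise luminescence as potentiators of the MG132 stress response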", "assay_type": "functional"}, "[3]": {"experiment": "luciferase reporter signal suppression in cells – H4 neuroglioma cells, luminescence, dose response (AID 1990)", "assay_type": "functional, cell-based"}, "[4]": {"test_system": "Streptococcus sp. 'group A'", "experiment": "Streptococcus pyogenes SK(-)GAS viability under kanamycin – luminescence, BacTiterGlo, confirmation, counter-screen for streptokinase expression inhibitor project, dose response (AID 1900)", "assay_type": "functional, organism-based"}, "CHO": {"test_system": "CHO", "experiment": "CHO cell viability loss, potency – luminescence, cytotoxicity control for TLR9-MyD88 binding inhibitor project, dose response (AID 588339);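 also: CHO cells stably coexpressing TLR9 and MyD88 fusions from primary screen; compound exposure lasted 48 hours before viability readout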", "assay_type": "functional, cell-based, hamster", "conditions": "Cricetulus griseus"}, "Genome polyprotein": {"molecular_target": "Genome polyprotein (dengue virus type 2, UniProt P29990)", "sequence (P29990 2492-3391 limits assumed)": "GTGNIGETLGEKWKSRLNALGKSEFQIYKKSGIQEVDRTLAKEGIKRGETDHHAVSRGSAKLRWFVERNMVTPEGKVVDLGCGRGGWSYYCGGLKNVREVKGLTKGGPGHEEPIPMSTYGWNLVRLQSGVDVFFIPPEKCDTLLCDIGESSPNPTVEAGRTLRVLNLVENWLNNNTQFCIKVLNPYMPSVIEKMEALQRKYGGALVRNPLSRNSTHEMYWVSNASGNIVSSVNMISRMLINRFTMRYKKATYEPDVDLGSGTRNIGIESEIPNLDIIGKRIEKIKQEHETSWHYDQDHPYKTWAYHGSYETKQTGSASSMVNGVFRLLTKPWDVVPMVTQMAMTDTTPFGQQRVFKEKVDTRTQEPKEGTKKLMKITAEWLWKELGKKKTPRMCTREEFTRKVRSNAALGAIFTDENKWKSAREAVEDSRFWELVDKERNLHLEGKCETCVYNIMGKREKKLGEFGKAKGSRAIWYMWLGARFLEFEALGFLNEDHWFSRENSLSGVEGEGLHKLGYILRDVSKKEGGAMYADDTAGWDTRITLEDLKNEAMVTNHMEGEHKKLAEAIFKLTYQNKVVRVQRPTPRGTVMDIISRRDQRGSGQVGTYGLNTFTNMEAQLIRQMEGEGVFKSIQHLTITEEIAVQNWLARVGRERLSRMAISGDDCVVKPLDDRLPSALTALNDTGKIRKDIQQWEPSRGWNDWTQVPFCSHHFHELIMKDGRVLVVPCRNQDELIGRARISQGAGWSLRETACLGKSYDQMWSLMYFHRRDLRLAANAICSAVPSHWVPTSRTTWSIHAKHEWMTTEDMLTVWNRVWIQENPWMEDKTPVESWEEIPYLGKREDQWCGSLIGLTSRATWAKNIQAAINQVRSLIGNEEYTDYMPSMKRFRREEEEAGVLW", "experiment": "flavivirus cap methylation enzyme inhibition – biochemical, confirmation dose response, primary screen (AID 588689)", "assay_type": "functional"}}, "note": "The source made the active and inactive calls.", "data": [{"smiles": "CC(=O)NC(c1ccc2ccccc2c1)c1ccc2cccnc2c1O", "note": "(stereo unspecified)", "values": [{"measurement": "IC50", "setting": "[1]", "result": "> 80 µM (inactive)"}]}, {"smiles": "CCOC(=O)C1=C(c2ccccc2)N=C(N)NC1c1ccc(OCc2ccc(Cl)cc2)c(OC)c1", "note": "(stereo unspecified)", "values": [{"measurement": "EC50", "setting": "[2]", "result": "25 µM (active)"}]}, {"smiles": "CCOC(=O)c1c(C)[nH]c2c1-c1ccccc1C(=O)C2=O", "values": [{"measurement": "EC50", "setting": "[3]", "result": "3.02 µM (active)"}]}, {"smiles": "O=[N+]([O-])c1c(NCCO)cc(Sc2nc3ccccc3s2)c2nonc12", "values": [{"measurement": "EC50", "setting": "[4]", "result": "2.73 µM (active)"}, {"measurement": "IC50", "setting": "CHO", "result": "1.94 µM (active)"}, {"measurement": "IC50", "setting": "Genome polyprotein", "result": "75.8 µM (active)"}]}]}
